{"source": "patent US12084473B2", "about": "“β-D-2′-deoxy-2′-α-fluoro-2′-β-C-substituted-2-modified-N6-substituted purine nucleotides for HCV treatment” (Atea Pharmaceuticals, Inc., priority 2015, dated 2024)", "key": {"[1]": {"tested_on": "HCV Genotype 4d, NS5B Mutation none", "test": "microbe, parasite or virus in culture", "format": "cell-based", "experimental": "(§1) Various patient-derived HCV genotypes containing wild-type and resistance-associated variants were used to determine their relative replication sensitivity to test compounds. Replicon resistance test vectors (RTVs) containing the NS5B genomic regions were prepared using viral RNA isolated from plasma of HCV patients. Each NS5B region was amplified by reverse-transcription polymerase chain reaction and cloned into an HCV replicon RTV which was then transferred by electroporation into Huh-7 cells."}, "[2]": {"tested_on": "HCV Genotype 1b, NS5B Mutation none", "test": "microbe, parasite or virus in culture", "format": "cell-based", "experimental": "as §1"}, "[3]": {"tested_on": "HCV Genotype 3a-1, NS5B Mutation none", "test": "microbe, parasite or virus in culture", "format": "cell-based", "experimental": "as §1"}, "[4]": {"tested_on": "HCV Genotype 2a, NS5B Mutation none", "test": "microbe, parasite or virus in culture", "format": "cell-based", "experimental": "as §1"}, "[5]": {"tested_on": "HCV Genotype 1a, NS5B Mutation L159F", "test": "microbe, parasite or virus in culture", "format": "cell-based", "experimental": "as §1"}, "[6]": {"tested_on": "HCV Genotype 4a, NS5B Mutation none", "test": "microbe, parasite or virus in culture", "format": "cell-based", "experimental": "as §1"}, "[7]": {"tested_on": "HCV Genotype 1a, NS5B Mutation L159F and S282T", "test": "microbe, parasite or virus in culture", "format": "cell-based", "experimental": "as §1"}, "[8]": {"tested_on": "HCV Genotype 2b, NS5B Mutation none", "test": "microbe, parasite or virus in culture", "format": "cell-based", "experimental": "as §1"}, "[9]": {"tested_on": "HCV Genotype 3a-2, NS5B Mutation none", "test": "microbe, parasite or virus in culture", "format": "cell-based", "experimental": "as §1"}, "[10]": {"tested_on": "HCV Genotype 1a, NS5B Mutation none", "test": "microbe, parasite or virus in culture", "format": "cell-based", "experimental": "as §1"}, "[11]": {"tested_on": "HCV Genotype 1b, NS5B Mutation C316N", "test": "microbe, parasite or virus in culture", "format": "cell-based", "experimental": "as §1"}, "Huh-7 luc/neo ET cells": {"tested_on": "Huh-7 luc/neo ET cells", "test": "Cytotoxicity by XTT staining in replicon cells", "outline": "(§2)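 Cells cultured 24 h, then exposed 72 h to six half-log dilutions (top 100.0 or 1.0 μM) in triplicate, with interferon-alpha2b reference and medium-only controls. Viability read by XTT staining on a parallel plate; TC50 derived from concentration-response.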"}, "[12]": {"test": "Cytotoxicity by XTT staining in replicon cells", "conditions": "human", "outline": "as §2"}, "HCV S282T replicon": {"tested_on": "HCV S282T replicon", "test": "microbe, parasite or virus in culture", "format": "cell-based", "experimental": "(§3) A transient transfection assay was performed to determine the sensitivity of the […] of HCV to test compounds. Huh-7 cells were electroporated in the presence of RNA transcribed from wild type or S282T HCV replicon plasmids from the T7 promoter. The transfected cells were seeded in to 96-well plates at 7.5×10^3 cells per well in Dulbecco's Modified Eagle's medium. After 24 hr of incubation, medium was removed and replaced with fresh medium containing no or various concentrations of test compounds. Following an additional 96-hr incubation, the anti-HCV activity was measured by luciferase endpoint with Britelite™ Plus luminescence reporter gene kit (Perkin Elmer, Shelton, CT). Duplicate plates were treated and incubated in parallel for assessment of cellular toxicity by staining with the tetrazolium dye XTT."}, "HCV wild type replicon": {"tested_on": "HCV wild type replicon", "test": "microbe, parasite or virus in culture", "format": "cell-based", "conditions": "NS5B Mutation None", "experimental": "as §3"}, "iPS Cardiomyocytes": {"tested_on": "iPS Cardiomyocytes", "test": "iPS Cardiomyocyte Assay", "format": "cell-based, human", "conditions": "3 days, XTT", "experimental": "iPS Cardiomyocytes (Cellular Dynamics) were seeded in microliter plates at 1.5×10^4 cells per well. After 48-hr incubation, cells were washed and maintenance medium containing serially diluted TA was added in triplicate. After incubating for an additional 3 days, cell viability was measured by staining with XTT and CC50 values were calculated."}, "[13]": {"tested_on": "HCV genotype 1b luciferase reporter replicon", "test": "microbe, parasite or virus in culture", "format": "cell-based"}, "[14]": {"conditions": "Hepatitis C virus, 96 h, read-out: IC50 Value"}, "[15]": {"conditions": "Hepatitis C virus, read-out: IC50 Value"}, "[16]": {"conditions": "genotype 3a-1, no NS5B mutation"}, "[17]": {"conditions": "genotype 1a, NS5B L159F and S282T"}, "[18]": {"conditions": "genotype 3a-2, no NS5B mutation"}}}
{"smiles": "CNc1nc(N)nc2c1ncn2[C@@H]1OC(CO[P@@](=O)(N[C@@H](C)C(=O)OC(C)C)Oc2ccccc2)[C@@H](O)[C@@]1(C)F", "note": "(stereo partly drawn) [Compound 5-2]", "values": [{"measurement": "IC50", "setting": "[1]; [14]", "value": 14, "unit": "nM"}, {"measurement": "Fold Change in IC50 from Sofosbuvir", "setting": "[1]; genotype 4d, no NS5B mutation", "value": 6.7}, {"measurement": "Fold Change in IC95 from Sofosbuvir", "setting": "[1]; genotype 4d, no NS5B mutation", "value": 12.8}, {"measurement": "IC95 Value", "setting": "[1]; genotype 4d, no NS5B mutation", "value": 79.9, "unit": "nM"}, {"measurement": "IC50", "setting": "[2]; [15]", "value": 10.6, "unit": "nM"}, {"measurement": "Fold Change in IC50 from Sofosbuvir", "setting": "[2]; genotype 1b, no NS5B mutation", "value": 0.8}, {"measurement": "Fold Change in IC95 from Sofosbuvir", "setting": "[2]; genotype 1b, no NS5B mutation", "value": 8.9}, {"measurement": "IC95 Value", "setting": "[2]; genotype 1b, no NS5B mutation", "value": 72.4, "unit": "nM"}, {"measurement": "IC50", "setting": "[3]; [15]", "value": 11.8, "unit": "nM"}, {"measurement": "Fold Change in IC50 from Sofosbuvir", "setting": "[3]; [16]", "value": 10.7}, {"measurement": "Fold Change in IC95 from Sofosbuvir", "setting": "[3]; [16]", "value": 11.6}, {"measurement": "IC95 Value", "setting": "[3]; [16]", "value": 59.3, "unit": "nM"}, {"measurement": "IC50", "setting": "[4]; [15]", "value": 6.2, "unit": "nM"}, {"measurement": "Fold Change in IC50 from Sofosbuvir", "setting": "[4]; genotype 2a, no NS5B mutation", "value": 3.6}, {"measurement": "Fold Change in IC95 from Sofosbuvir", "setting": "[4]; genotype 2a, no NS5B mutation", "value": 4.3}, {"measurement": "IC95 Value", "setting": "[4]; genotype 2a, no NS5B mutation", "value": 45.4, "unit": "nM"}, {"measurement": "cross-resistance to L159F mutant", "setting": "[5]", "value": "neither 25, 27 nor 5-2 compound showed any evidence of cross-resistance"}, {"measurement": "IC50", "setting": "[5]; [15]", "value": 13, "unit": "nM"}, {"measurement": "Fold Change in IC50 from Sofosbuvir", "setting": "[5]; genotype 1a, NS5B L159F", "value": 8.8}, {"measurement": "Fold Change in IC95 from Sofosbuvir", "setting": "[5]; genotype 1a, NS5B L159F", "value": 11.2}, {"measurement": "IC95 Value", "setting": "[5]; genotype 1a, NS5B L159F", "value": 95.3, "unit": "nM"}, {"measurement": "IC50", "setting": "[6]; [15]", "value": 9.9, "unit": "nM"}, {"measurement": "Fold Change in IC50 from Sofosbuvir", "setting": "[6]; genotype 4a, no NS5B mutation", "value": 7.5}, {"measurement": "Fold Change in IC95 from Sofosbuvir", "setting": "[6]; genotype 4a, no NS5B mutation", "value": 9.2}, {"measurement": "IC95 Value", "setting": "[6]; genotype 4a, no NS5B mutation", "value": 74.4, "unit": "nM"}, {"measurement": "cross-resistance to L159F and S282T mutant", "setting": "[7]", "value": "neither 25, 27 nor 5-2 compound showed any evidence of cross-resistance"}, {"measurement": "IC50", "setting": "[7]; [15]", "value": 38.7, "unit": "nM"}, {"measurement": "Fold Change in IC50 from Sofosbuvir", "setting": "[7]; [17]", "value": 41.9}, {"measurement": "Fold Change in IC95 from Sofosbuvir", "setting": "[7]; [17]", "value": 54.1}, {"measurement": "IC95 Value", "setting": "[7]; [17]", "value": 313.5, "unit": "nM"}, {"measurement": "IC50", "setting": "[8]; [15]", "value": 6.3, "unit": "nM"}, {"measurement": "Fold Change in IC50 from Sofosbuvir", "setting": "[8]; genotype 2b, no NS5B mutation", "value": 7.1}, {"measurement": "Fold Change in IC95 from Sofosbuvir", "setting": "[8]; genotype 2b, no NS5B mutation", "value": 9.1}, {"measurement": "IC95 Value", "setting": "[8]; genotype 2b, no NS5B mutation", "value": 32.5, "unit": "nM"}, {"measurement": "IC50", "setting": "[9]; [15]", "value": 10.4, "unit": "nM"}, {"measurement": "Fold Change in IC50 from Sofosbuvir", "setting": "[9]; [18]", "value": 11.9}, {"measurement": "Fold Change in IC95 from Sofosbuvir", "setting": "[9]; [18]", "value": 14.3}, {"measurement": "IC95 Value", "setting": "[9]; [18]", "value": 56.5, "unit": "nM"}, {"measurement": "IC50", "setting": "[10]; [15]", "value": 10.5, "unit": "nM"}, {"measurement": "Fold Change in IC50 from Sofosbuvir", "setting": "[10]; genotype 1a, no NS5B mutation", "value": 6.0}, {"measurement": "Fold Change in IC95 from Sofosbuvir", "setting": "[10]; genotype 1a, no NS5B mutation", "value": 8.4}, {"measurement": "IC95 Value", "setting": "[10]; genotype 1a, no NS5B mutation", "value": 60.8, "unit": "nM"}, {"measurement": "cross-resistance to C316N mutant", "setting": "[11]", "value": "neither 25, 27 nor 5-2 compound showed any evidence of cross-resistance"}, {"measurement": "IC50", "setting": "[11]; [15]", "value": 7.7, "unit": "nM"}, {"measurement": "Fold Change in IC50 from Sofosbuvir", "setting": "[11]; genotype 1b, NS5B C316N", "value": 9.6}, {"measurement": "Fold Change in IC95 from Sofosbuvir", "setting": "[11]; genotype 1b, NS5B C316N", "value": 11.1}, {"measurement": "IC95 Value", "setting": "[11]; genotype 1b, NS5B C316N", "value": 42.7, "unit": "nM"}, {"measurement": "TC50", "setting": "Huh-7 luc/neo ET cells", "value": "greater than one hundred"}, {"measurement": "CC50 at 72 h", "setting": "[12]", "value": "> 100000", "unit": "nM"}, {"measurement": "cross-resistance to S282T variant", "setting": "HCV S282T replicon", "value": "neither 25, 27, nor 5-2 compounds showed any evidence of cross-resistance"}, {"measurement": "IC50", "setting": "HCV S282T replicon; [14]", "value": 2.8, "unit": "nM"}, {"measurement": "Fold Change in IC50 from Sofosbuvir", "setting": "HCV S282T replicon; NS5B Mutation S282T", "value": 99.3}, {"measurement": "Fold Change in IC95 from Sofosbuvir", "setting": "HCV S282T replicon; NS5B Mutation S282T", "value": "<48.5"}, {"measurement": "IC95 Value", "setting": "HCV S282T replicon; NS5B Mutation S282T, transient assay, 96-hr", "value": 20.6, "unit": "nM"}, {"measurement": "IC50", "setting": "HCV wild type replicon; Hepatitis C virus, transient assay, 96-hr, read-out: IC50 Value", "value": 1.4, "unit": "nM"}, {"measurement": "Fold Change in IC50 from Sofosbuvir", "setting": "HCV wild type replicon", "value": 26}, {"measurement": "Fold Change in IC95 from Sofosbuvir", "setting": "HCV wild type replicon", "value": 22.2}, {"measurement": "IC95 Value", "setting": "HCV wild type replicon; transient assay, 96-hr", "value": 9.98, "unit": "nM"}, {"measurement": "cytotoxicity against iPS cardiomyocytes in vitro", "setting": "iPS Cardiomyocytes", "value": "no cytotoxicity"}, {"measurement": "fold increase in activity (versus parent nucleoside)", "setting": "[13]", "value": "≥ 3,900"}, {"measurement": "EC95", "setting": "[13]; Hepatitis C virus, Huh-7 luc/neo ET cells, 72 hours, luciferase, read-out: HCV Replicon EC50/EC95: EC95", "value": 28, "unit": "nM"}, {"measurement": "EC50", "setting": "[13]; Hepatitis C virus, read-out: EC50 in a replicon assay", "value": 4, "unit": "nM"}, {"measurement": "Fold increase in activity compared to parent nucleoside", "setting": "[13]; Table 7", "value": ">3,900"}]}
